Assay results published in ChEMBL document CHEMBL5441442, “ASAP - In vitro cardiotoxicity” (2024).

Tests used:
Format in all cases: toxicity, cell-based, Cricetulus griseus, CHO
[1] = target: Sodium channel protein type 5 subunit alpha (Homo sapiens, UniProt Q14524); test: (§1) Compounds were solubilised to 10 mM in DMSO and diluted in HBPS to 30 mM. 6-Point concentration-response curves were generated using serial dilutions from the top test concentration. Electrophysiological recordings were made from a Chinese Hamster Ovary cell line stably expressing the full-length ion channel. Single cell ionic currents were measured in whole-cell configuration at room temperature. The internal solution for hNaV1.5 is buffered to pH 7.3, and the external solution is buffered to pH 7.4. The test pulse was applied according to voltage protocol. Compounds were incubated for 2 min to allow stabilization of the parameters. Concentration-response curves were generated by cumulative addition of compound with concentrations low to high. In all cases, steady-state inhibition was achieved before the next concentration of compound was added. To investigate any use-dependence, an 8-pulse voltage protocol is applied at a frequency of 3 Hz. Inhibition is compared at pulse 1 and pulse 8. Any difference in the potency of a compound at P8 versus P1 would be typical of use-dependent block. IC50 values or % inhibition at the top test concentration is obtained. The assay has been performed by Concept Life Sciences Ltd.; settings: for Inhibition: chinese hamster, cho, pH 7.3, 2 min, 2 min, top test concentration 30 uM
Chain of Sodium channel protein type 5 subunit alpha (Q14524 whole entry): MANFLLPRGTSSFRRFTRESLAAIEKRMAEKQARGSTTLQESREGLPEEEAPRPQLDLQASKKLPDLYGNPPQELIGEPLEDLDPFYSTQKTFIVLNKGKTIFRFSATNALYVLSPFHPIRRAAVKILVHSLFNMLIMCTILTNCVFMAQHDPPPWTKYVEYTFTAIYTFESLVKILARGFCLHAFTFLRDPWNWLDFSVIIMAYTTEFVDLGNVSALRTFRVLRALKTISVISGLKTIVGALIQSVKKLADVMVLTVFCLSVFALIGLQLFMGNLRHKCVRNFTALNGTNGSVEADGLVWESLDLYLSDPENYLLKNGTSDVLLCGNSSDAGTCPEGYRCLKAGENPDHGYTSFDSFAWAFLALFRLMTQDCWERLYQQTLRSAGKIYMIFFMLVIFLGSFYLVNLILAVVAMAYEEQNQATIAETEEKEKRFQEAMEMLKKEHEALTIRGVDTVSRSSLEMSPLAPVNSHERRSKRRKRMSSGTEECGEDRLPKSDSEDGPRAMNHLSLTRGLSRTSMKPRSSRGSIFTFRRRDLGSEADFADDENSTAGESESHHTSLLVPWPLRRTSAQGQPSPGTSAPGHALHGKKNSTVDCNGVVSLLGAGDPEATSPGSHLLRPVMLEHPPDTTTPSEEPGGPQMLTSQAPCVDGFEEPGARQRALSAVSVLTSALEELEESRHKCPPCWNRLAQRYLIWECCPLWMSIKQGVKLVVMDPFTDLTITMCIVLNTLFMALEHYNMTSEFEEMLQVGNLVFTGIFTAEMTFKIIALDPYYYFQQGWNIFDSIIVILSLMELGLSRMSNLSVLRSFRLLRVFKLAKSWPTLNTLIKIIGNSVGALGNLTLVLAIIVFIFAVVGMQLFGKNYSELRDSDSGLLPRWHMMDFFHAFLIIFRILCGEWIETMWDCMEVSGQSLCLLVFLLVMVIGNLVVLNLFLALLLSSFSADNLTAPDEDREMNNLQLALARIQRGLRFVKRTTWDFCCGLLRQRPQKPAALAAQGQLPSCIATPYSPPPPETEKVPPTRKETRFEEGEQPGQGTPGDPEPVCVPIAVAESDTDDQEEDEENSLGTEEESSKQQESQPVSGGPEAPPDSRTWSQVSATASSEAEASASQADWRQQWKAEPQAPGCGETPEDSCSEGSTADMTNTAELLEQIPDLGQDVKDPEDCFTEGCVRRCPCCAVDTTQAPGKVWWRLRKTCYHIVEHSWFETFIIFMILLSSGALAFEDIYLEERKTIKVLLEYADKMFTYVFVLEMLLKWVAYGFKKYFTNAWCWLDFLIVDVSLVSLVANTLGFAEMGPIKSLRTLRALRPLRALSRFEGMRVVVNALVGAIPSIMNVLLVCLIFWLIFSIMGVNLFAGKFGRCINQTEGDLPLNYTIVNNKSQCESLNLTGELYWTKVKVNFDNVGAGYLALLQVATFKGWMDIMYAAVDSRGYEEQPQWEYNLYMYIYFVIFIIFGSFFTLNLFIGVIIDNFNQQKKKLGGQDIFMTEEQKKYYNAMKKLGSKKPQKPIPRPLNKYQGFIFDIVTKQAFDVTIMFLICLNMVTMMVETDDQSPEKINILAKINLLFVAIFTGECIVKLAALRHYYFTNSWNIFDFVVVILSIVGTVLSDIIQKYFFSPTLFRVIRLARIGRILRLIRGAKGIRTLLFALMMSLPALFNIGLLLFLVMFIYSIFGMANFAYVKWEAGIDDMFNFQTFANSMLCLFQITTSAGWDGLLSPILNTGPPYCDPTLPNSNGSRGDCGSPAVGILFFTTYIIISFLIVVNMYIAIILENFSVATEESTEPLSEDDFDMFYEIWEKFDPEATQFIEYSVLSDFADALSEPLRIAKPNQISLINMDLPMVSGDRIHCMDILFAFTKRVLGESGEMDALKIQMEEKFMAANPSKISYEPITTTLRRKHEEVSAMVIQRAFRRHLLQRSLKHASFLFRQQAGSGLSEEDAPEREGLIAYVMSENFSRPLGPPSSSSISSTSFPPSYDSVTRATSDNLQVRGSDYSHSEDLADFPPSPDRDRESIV

[2] = target: NaV1.5 (sodium channel protein type 5 subunit alpha) (Homo sapiens, UniProt Q14524); test: as §1; settings: chinese hamster, CHO cells stably expressing full-length hNaV1.5, pH 7.3; top test concentration 30 uM
Chain of NaV1.5 (sodium channel protein type 5 subunit alpha) (Q14524 whole entry): as above

[3] = target: hERG (KCNH2) (Homo sapiens, UniProt Q12809); test: as §1, with “recordings are” for “recordings were”, “currents are” for “currents were”, “for hERG” for “for hNaV1.5”, “added.” for “added. To investigate any use-dependence, an 8-pulse voltage protocol is applied at a frequency of 3 Hz. Inhibition is compared at pulse 1 and pulse 8. Any difference in the potency of a compound at P8 versus P1 would be typical of use-dependent block.”, “% of” for “%”, “at” for “at the”; settings: chinese hamster, CHO cells stably expressing full-length hERG, pH 7.3; top test concentration 30 uM
[4] = target: Voltage-gated inwardly rectifying potassium channel KCNH2 (Homo sapiens, UniProt Q12809); test: as above

Row | SMILES | IC50 [1] [µM] | Inhibition [1] [%] | inhibition at 2 min [2] [%] | inhibition at 2 min [3] [%] | IC50 [4] [µM] | Inhibition ([4]; chinese hamster, cho, pH 7.3, 2 min, 2 min, top test concentration 30 uM) [%]
1 | CNCc1cc(-c2cc3c(N[C@@H](c4ccc5c(c4)S(=O)(=O)CCC5)C(C)C)ncnc3[nH]2)co1 | > 30 | 16 | 10 | 26 | > 30 | 
2 | CC(C)[C@H](Nc1ncnc2[nH]ccc12)c1ccc2c(c1)S(=O)(=O)CCC2 | > 30 | 29 | 19 | 39 | > 30 | 
3 | COc1ccc([C@H](Cc2nnn[nH]2)NC(=O)c2ncnc3[nH]ccc23)cc1 | > 30 | 8 | 9 | 27 | > 30 | 
4 | C[C@H](C(=O)O)[C@@H](NC(=O)c1ncnc2[nH]ccc12)c1ccc(Br)cc1 | > 30 | 16 | 18 | 28 | > 30 | 
5 | CC(C)[C@@H](Nc1ncnc2[nH]c(C(=O)N[C@@H]3CCN(C)C3)cc12)c1ccc2c(c1)S(=O)(=O)CCC2 | > 30 |  | 11 |  | > 30 | 18
6 | CC(C)[C@@H](Nc1ncnc2[nH]c(-c3cnn(C)c3C#N)cc12)c1ccc2c(n1)OCCO2 | > 30 | 25 | 27 |  | 10.1 | 
7 | Cn1ncc(-c2cc3c(N[C@@H](c4ccc5c(n4)OCCO5)C(C)(C)C)ncnc3[nH]2)c1C#N | > 30 | 21 | 17 |  | 19.5 | 
8 | CNC(=O)Cn1cc(-c2cc3c(N[C@@H](c4ccc5c(c4)S(=O)(=O)CCC5)C(C)C)ncnc3[nH]2)cn1 | > 30 | 26 | 15 | 23 | > 30 | 
9 | CC(C)[C@H](Nc1ncnc2[nH]c(-c3cnn(C)c3C#N)cc12)c1ccc2c(n1)OCCO2 | > 30 | 35 | 33 |  | 11 | 
